In ChEMBL document CHEMBL1157784, “Antitumor activity and COMPARE analysis of bis-indole derivatives” (Bioorg Med Chem, 2010):
Counter-ions that a name gives are not always drawn.

Tests used:
Type in all cases: functional
NSCLC = experiment: Growth inhibition of human NSCLC cell by NCI-CLS assay
[1] = Growth inhibition of human ovarian cancer cell by NCI-CLS assay; details: Cancer cell lines; for CC50: read-out: LC50 (the source's name)
[2] = Growth inhibition of human colon cancer cell by NCI-CLS assay; details: Cancer cell lines
[3] = Growth inhibition of human prostate cancer cell by NCI-CLS assay; details: Cancer cell lines; for CC50: read-out: LC50 (the source's name)
[4] = Growth inhibition of human leukemia cell by NCI-CLS assay
[5] = Growth inhibition of human breast cancer cell by NCI-CLS assay; details: Cancer cell lines; for CC50: read-out: LC50 (the source's name)
[6] = Growth inhibition of human renal cancer cell by NCI-CLS assay; details: Cancer cell lines; for CC50: read-out: LC50 (the source's name)
[7] = Growth inhibition of human melanoma cell by NCI-CLS assay; details: for CC50: read-out: LC50 (the source's name)
[8] = Growth inhibition of human CNS cancer cell by NCI-CLS assay; details: Cancer cell lines; for CC50: read-out: LC50 (the source's name)

SMILES | GI50 (NSCLC) [µM] | TGI (NSCLC) [µM] | GI50 [1] [µM] | TGI [1] [µM] | GI50 [2] [µM] | TGI [2] [µM] | GI50 [3] [µM] | TGI [3] [µM] | GI50 [4] [µM] | TGI [4] [µM] | GI50 [5] [µM] | TGI [5] [µM] | GI50 [6] [µM] | TGI [6] [µM] | CC50 [6] [µM] | GI50 [7] [µM] | TGI [7] [µM] | CC50 [7] [µM] | GI50 [8] [µM] | TGI [8] [µM] | further results
O=C1Nc2cccc(I)c2/C1=C\c1cccc(/C=C2/C(=O)Nc3cccc(I)c32)n1 | 1.3 | 5 | 1.1 | 5.6 | 0.5 | 1.9 | 0.6 | 2.2 | 0.9 | 30.9 | 0.8 | 4.4 | 0.9 | 2.6 | 8.3 | 1 | 3.2 | 13.5 | 1.2 | 4 | LC50 (NSCLC): 21.9 µM; CC50 [1]: 22.4 µM; LC50 [2]: 7.6 µM; CC50 [3]: 24 µM; CC50 [5]: 21.9 µM; CC50 [8]: 13.8 µM
O=C1Nc2c(ccc3ccccc23)/C1=C\c1cccc(/C=C2/C(=O)Nc3c2ccc2ccccc32)n1 | 24 | 57.5 | 19 | 56.2 | 14.4 | 44.7 | 21.9 | 81.3 | 1.5 | 10 | 17.8 | 69.2 | 17 | 41.7 | 79.4 | 13.8 | 38 | 77.6 | 15.8 | 49 | LC50 (NSCLC): 89.1 µM; CC50 [1]: 91.2 µM; LC50 [2]: 83.2 µM; LC50 [4]: 77.6 µM; CC50 [5]: 97.7 µM; CC50 [8]: 85.1 µM
CC(C)(C)c1cc(/C=C2/C(=O)Nc3cccc(Cl)c32)c(O)c(/C=C2/C(=O)Nc3cccc(Cl)c32)c1 | 3.5 | 15.1 | 2.2 | 15.8 | 2.2 | 6.2 | 2.2 | 10.2 | 2.8 | 46.8 | 2.4 | 11.5 | 3.6 | 15.8 | 56.2 | 2.9 | 9.3 | 36.3 | 2.3 | 11 | LC50 (NSCLC): 64.6 µM; CC50 [1]: 44.7 µM; LC50 [2]: 21.9 µM; CC50 [3]: 72.4 µM; CC50 [5]: 67.6 µM; CC50 [8]: 58.9 µM
COc1ccc2c(c1)/C(=C\c1cc(C(C)(C)C)cc(/C=C3/C(=O)Nc4ccc(OC)cc43)c1O)C(=O)N2 | 8.7 | 32.4 | 5.9 | 25.1 | 6.3 | 19.9 | 4.8 | 24.5 | 3.9 | 43.6 | 5.5 | 31.6 | 7.2 | 22.4 | 61.7 | 4.4 | 13.2 | 39.8 | 4.8 | 21.4 | LC50 (NSCLC): 69.2 µM; CC50 [1]: 61.7 µM; LC50 [2]: 53.7 µM; CC50 [3]: 72.4 µM; CC50 [5]: 63.1 µM; CC50 [8]: 66.1 µM
COc1ccc2c(c1)/C(=C\c1cc(OC)c(O)c(-c3cc(/C=C4/C(=O)Nc5ccc(OC)cc54)cc(OC)c3O)c1)C(=O)N2 | 21.9 | 95.5 | 15.1 |  | 10.5 | 75.9 | 10.5 |  | 6.9 | 89.1 | 13.8 |  | 20.9 | 95.5 |  | 10.7 | 93.3 |  | 6.8 | 87.1 | 
COc1ccc2c(c1)/C(=C\c1cccc(/C=C3/C(=O)Nc4ccc(OC)cc43)c1)C(=O)N2 | 3 | 11 | 2.1 | 6.3 | 1.7 | 7.4 | 1.7 | 4.1 | 1 | 11.5 | 1.2 | 5 | 2.5 | 6.2 | 79.4 | 1.2 | 2.9 | 30.2 | 1.4 | 4.3 | LC50 (NSCLC): 85.1 µM; CC50 [1]: 95.5 µM; LC50 [2]: 83.2 µM; CC50 [3]: 25.7 µM; CC50 [8]: 29.5 µM
O=Cc1cccc(/C=C2/C(=O)Nc3c2ccc2ccccc32)n1 | 14.4 | 37.1 | 8.7 | 30.9 | 9.5 | 44.7 | 5.7 | 33.1 | 2.5 | 7.6 | 6.2 | 45.7 | 10.7 | 26.9 | 74.1 | 11.5 | 35.5 | 72.4 | 11.2 | 33.9 | LC50 (NSCLC): 85.1 µM; CC50 [1]: 72.4 µM; LC50 [2]: 83.2 µM; CC50 [3]: 97.7 µM; CC50 [5]: 79.4 µM; CC50 [8]: 91.2 µM
O=C1Nc2cccc(Cl)c2/C1=C\c1cccc(/C=C2/C(=O)Nc3cccc(Cl)c32)c1 | 4.2 | 20.4 | 2.7 | 14.4 | 2.6 | 14.8 | 1.5 | 16.2 | 1.3 | 9.8 | 2.4 | 13.2 | 2.3 | 9.3 | 36.3 | 3.2 | 16.6 | 34.7 | 1.7 | 13.5 | LC50 (NSCLC): 42.7 µM; CC50 [1]: 41.7 µM; LC50 [2]: 33.1 µM; CC50 [3]: 50.1 µM; LC50 [4]: 27.5 µM; CC50 [5]: 42.7 µM; CC50 [8]: 38.9 µM
O=C1Nc2cccc(Cl)c2/C1=C\c1ccc2ccc3ccc(/C=C4/C(=O)Nc5cccc(Cl)c54)nc3c2n1 | 25.7 | 79.4 | 6.2 | 30.9 | 3.9 | 30.9 | 3.8 | 31.6 | 1.1 | 30.2 | 14.4 | 70.8 | 9.5 | 58.9 | 97.7 | 13.2 | 42.7 | 61.7 | 7.4 | 34.7 | CC50 [1]: 70.8 µM; LC50 [2]: 79.4 µM; CC50 [3]: 79.4 µM; CC50 [5]: 93.3 µM; CC50 [8]: 77.6 µM
COc1ccc(OC)c2c1NC(=O)/C2=C/c1cccc(/C=C2/C(=O)Nc3c(OC)ccc(OC)c32)n1 | 0.9 | 18.6 | 0.8 | 11.2 | 0.5 | 1.9 | 0.5 | 3.4 | 0.4 | 8.7 | 0.7 | 17.4 | 0.7 | 2.5 | 18.2 | 0.7 | 2.2 | 13.5 | 0.7 | 3.6 | LC50 (NSCLC): 85.1 µM; CC50 [1]: 27.5 µM; LC50 [2]: 22.4 µM; CC50 [3]: 25.1 µM; LC50 [4]: 64.6 µM; CC50 [5]: 60.3 µM; CC50 [8]: 21.9 µM
O=C1Nc2cccc(F)c2C1=Cc1cccc(C=C2C(=O)Nc3cccc(F)c32)n1 | 2 | 10.2 | 1.6 | 8.5 | 0.7 | 3.3 | 1.4 | 12.9 | 0.8 | 9.8 | 0.8 | 10 | 1.1 | 3.8 |  | 0.9 | 2.8 |  | 1.1 | 5.7 | 
Cc1[nH]c(C)c(/C=C2/C(=O)Nc3ccc(F)cc32)c1/C=C1/C(=O)Nc2ccc(F)cc21 | 7.8 | 25.1 | 8.1 | 25.7 | 5 | 17 | 7.9 | 20.4 | 2.4 | 9.1 | 4.9 | 22.4 | 9.1 | 32.4 | 75.9 | 5.1 | 18.2 | 52.5 | 3.4 | 13.2 | LC50 (NSCLC): 74.1 µM; CC50 [1]: 72.4 µM; LC50 [2]: 53.7 µM; CC50 [3]: 44.7 µM; LC50 [4]: 37.1 µM; CC50 [5]: 70.8 µM; CC50 [8]: 46.8 µM
COc1ccc2c(c1)/C(=C\c1ccc3ccc4ccc(/C=C5/C(=O)Nc6ccc(OC)cc65)nc4c3n1)C(=O)N2 | 3.2 | 28.2 | 5.5 | 58.9 | 2.8 | 16.2 | 3.7 | 36.3 | 3 | 60.3 | 3.9 | 75.9 | 3.3 | 19.5 | 97.7 | 3.2 | 11.5 | 74.1 | 3.8 |  | LC50 (NSCLC): 75.9 µM
CC[C@]1(O)C[C@H]2CN(CCc3c([nH]c4ccccc34)[C@@](C(=O)OC)(c3cc4c(cc3OC)N(C=O)[C@H]3[C@@](O)(C(=O)OC)[C@H](OC(C)=O)[C@]5(CC)C=CCN6CC[C@]43[C@@H]65)C2)C1 [VINCRISTINE SULFATE] | 0.2 | 15.8 | 0.3 | 19.9 | 0.1 | 4 | 0.1 | 6.3 | 0.1 | 15.8 | 0.3 | 7.9 | 0.3 | 19.9 |  | 0.2 | 7.9 |  | 0.1 | 6.3 | 
